For one compound, EC50 results are on record in US8546377B2 (AbbVie Inc., priority 2009, dated 2013).

The target in this assay is T1, 5HT2C receptors (Homo sapiens, UniProt P28335).
T1 sequence (P28335 33-458): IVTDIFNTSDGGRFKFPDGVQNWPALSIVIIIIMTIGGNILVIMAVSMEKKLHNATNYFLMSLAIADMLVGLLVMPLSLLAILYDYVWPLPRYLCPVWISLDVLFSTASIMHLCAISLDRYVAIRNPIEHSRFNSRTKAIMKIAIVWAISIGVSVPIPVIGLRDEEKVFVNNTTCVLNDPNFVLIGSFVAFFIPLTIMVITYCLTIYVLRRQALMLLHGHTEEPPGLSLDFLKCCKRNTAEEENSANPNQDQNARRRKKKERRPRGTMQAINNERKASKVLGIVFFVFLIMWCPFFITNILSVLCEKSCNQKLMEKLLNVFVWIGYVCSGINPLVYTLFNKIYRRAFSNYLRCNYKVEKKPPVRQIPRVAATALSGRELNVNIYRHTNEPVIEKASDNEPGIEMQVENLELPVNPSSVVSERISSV
In words: Human 5-HT2C functional assay in CHO-K1 cells (calcium flux, FLIPR). Further details: expressed in transfected cells; host or cells: CHO-K1 cells. The following applies: CHO-K1 cells over-expressing 5HT2C, calcium flux; read-out: EC50 (μM), 5-HT2c Agonist Activity. Format: cell-based. In outline:
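EC50 came from a 4-parameter logistic fit, with Emax expressed relative to serotonin, of intracellular Ca2+ rises read on FLIPR at 480/530 nm, 25° C, over 3 min. Compounds ran from 10 μM in six 1:10 steps (0.2% DMSO) on serum-starved CHO-K1 transfectants pre-loaded 60 min with Ca4 dye and probenecid.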

In the case of `O=C1NCC2CNCCN2c2ccc(NS(=O)(=O)c3ccccc3)cc21` (stereo not shown) [Example 48, N-(7-oxo-1,2,3,4,4a,5,6,7-octahydropyrazino[1,2-a][1,4]benzodiazepin-9-yl)benzenesulfonamide], the EC50 is over 10 µM.

The term EC50 denotes the concentration needed to bring the measured effect to its halfway point.
